The text below walks through data of ChEMBL document CHEMBL1649508, “Emergence of quinolone-resistant Bordetella pertussis in Japan” (2009).

Each structure is given as a SMILES string. In brackets after ≈: the same amount, converted by molar mass.

What all share (format): functional
Assay [1] has as its system Bordetella pertussis. The assay can be described thus: Antibacterial activity against […] Bordetella pertussis BP121 by Etest method.
In assay [2] the test system is Bordetella pertussis. Put plainly: Antibacterial activity against quinolone-susceptible Bordetella pertussis BP115 by Etest method.
For assay [3], the system named is Bordetella pertussis. Put plainly: Antibacterial activity against quinolone-susceptible Bordetella pertussis BP111 by Etest method.
Assay [4] concerns Bordetella pertussis. The assay can be described thus: Antibacterial activity against […] Bordetella pertussis BP117 by Etest method.
Assay [5] has as its system Bordetella pertussis. The assay can be described thus: Antibacterial activity against quinolone-susceptible Bordetella pertussis BP112 by Etest method.
Assay [6] concerns Bordetella pertussis. Put plainly: Antibacterial activity against quinolone-susceptible Bordetella pertussis BP109 by Etest method.
In assay [7] the test system is Bordetella pertussis. Put plainly: Antibacterial activity against quinolone-susceptible Bordetella pertussis BP106 by Etest method.
The test system of assay [8] is Bordetella pertussis. Put plainly: Antibacterial activity against […] Bordetella pertussis BP99 by Etest method.
In assay [9] the test system is Bordetella pertussis. Put plainly: Antibacterial activity against quinolone-susceptible Bordetella pertussis BP101 by Etest method.
Assay [10] deals with Bordetella pertussis. The assay can be described thus: Antibacterial activity against […] Bordetella pertussis BP58 by Etest method.
The test system of assay [11] is Bordetella pertussis. The assay can be described thus: Antibacterial activity against […] Bordetella pertussis BP118 by Etest method.
The test system of assay [12] is Bordetella pertussis. Put plainly: Antibacterial activity against […] Bordetella pertussis BP122 by Etest method.
Assay [13] has as its system Bordetella pertussis. Put plainly: Antibacterial activity against quinolone-susceptible Bordetella pertussis BP128 by Etest method.
Assay [14] deals with Bordetella pertussis. Put plainly: Antibacterial activity against quinolone-susceptible Bordetella pertussis BP113 by Etest method.
The test system of assay [15] is Bordetella pertussis. The assay can be described thus: Antibacterial activity against quinolone-susceptible Bordetella pertussis CCUG 30837 by Etest method.
The test system of assay [16] is Bordetella pertussis. The assay can be described thus: Antibacterial activity against […] Bordetella pertussis BP117 by Etest method in presence of efflux pump inhibitor phenyl-arginine-beta-naphthylamide.
The subject of assay [17] is Bordetella pertussis. The assay can be described thus: Antibacterial activity against […] Bordetella pertussis BP99 by Etest method in presence of efflux pump inhibitor phenyl-arginine-beta-naphthylamide.
Assay [18] concerns Bordetella pertussis. Put plainly: Antibacterial activity against […] Bordetella pertussis BP121 by Etest method in presence of efflux pump inhibitor phenyl-arginine-beta-naphthylamide.
In assay [19] the test system is Bordetella pertussis. The assay can be described thus: Antibacterial activity against […] Bordetella pertussis BP58 by Etest method in presence of efflux pump inhibitor phenyl-arginine-beta-naphthylamide.
The subject of assay [20] is Bordetella pertussis. Put plainly: Antibacterial activity against quinolone-susceptible Bordetella pertussis BP113 by Etest method in presence of efflux pump inhibitor phenyl-arginine-beta-naphthylamide.
Assay [21] deals with Bordetella pertussis. Put plainly: Antibacterial activity against […] Bordetella pertussis BP118 by Etest method in presence of efflux pump inhibitor phenyl-arginine-beta-naphthylamide.
In assay [22] the test system is Bordetella pertussis. The assay can be described thus: Antibacterial activity against quinolone-susceptible Bordetella pertussis CCUG 30837 by Etest method in presence of efflux pump inhibitor phenyl-arginine-beta-naphthylamide.
In assay [23] the test system is Bordetella pertussis. The assay can be described thus: Antibacterial activity against […] Bordetella pertussis BP122 by Etest method in presence of efflux pump inhibitor phenyl-arginine-beta-naphthylamide.

For orientation: MIC means the lowest concentration that inhibits growth of the organism. As to `O=C(N[C@H](CO)[C@H](O)c1ccc([N+](=O)[O-])cc1)C(Cl)Cl` [CHLORAMPHENICOL], the MIC was 0.25 µg/mL (≈ 0.774 µM) in the assay with Bordetella pertussis [1]; 0.5 µg/mL (≈ 1.55 µM) against Bordetella pertussis [2]; 0.25 µg/mL (≈ 0.774 µM) in the assay with Bordetella pertussis [3]; 0.25 µg/mL (≈ 0.774 µM) against Bordetella pertussis [4]; 0.25 µg/mL (≈ 0.774 µM) against Bordetella pertussis [5]; 0.125 µg/mL (≈ 0.387 µM) against Bordetella pertussis [6]. The MIC in the assay on Bordetella pertussis [7] was found to be 0.25 µg/mL (≈ 0.774 µM); against Bordetella pertussis [8], 0.25 µg/mL (≈ 0.774 µM); in the assay with Bordetella pertussis [9] it was 0.25 µg/mL (≈ 0.774 µM); in the assay on Bordetella pertussis [10], 0.5 µg/mL (≈ 1.55 µM); against Bordetella pertussis [11] it was 0.5 µg/mL (≈ 1.55 µM); against Bordetella pertussis [12] it was 0.25 µg/mL (≈ 0.774 µM). Further, the MIC against Bordetella pertussis [13] amounted to 0.25 µg/mL (≈ 0.774 µM); in the assay on Bordetella pertussis [14], 0.5 µg/mL (≈ 1.55 µM); in the assay with Bordetella pertussis [15], 0.5 µg/mL (≈ 1.55 µM).
As to `O=C(O)c1cn(C2CC2)c2cc(N3CCNCC3)c(F)cc2c1=O` [CIPROFLOXACIN], the MIC in the assay on Bordetella pertussis [1] was determined as 0.125 µg/mL (≈ 0.377 µM); in the assay on Bordetella pertussis [2] it was 0.016 µg/mL (≈ 0.0483 µM); with Bordetella pertussis [3], 0.016 µg/mL (≈ 0.0483 µM); against Bordetella pertussis [4], 0.125 µg/mL (≈ 0.377 µM); against Bordetella pertussis [5], 0.008 µg/mL (≈ 0.0241 µM); in the assay on Bordetella pertussis [6], 0.008 µg/mL (≈ 0.0241 µM). Besides, the MIC was 0.008 µg/mL (≈ 0.0241 µM) against Bordetella pertussis [7]; 0.125 µg/mL (≈ 0.377 µM) against Bordetella pertussis [8]; 0.016 µg/mL (≈ 0.0483 µM) against Bordetella pertussis [9]; 0.125 µg/mL (≈ 0.377 µM) against Bordetella pertussis [10]; 0.125 µg/mL (≈ 0.377 µM) against Bordetella pertussis [11]; 0.125 µg/mL (≈ 0.377 µM) with Bordetella pertussis [12]. Also, the MIC against Bordetella pertussis [13] was 0.016 µg/mL (≈ 0.0483 µM); with Bordetella pertussis [14], 0.008 µg/mL (≈ 0.0241 µM); in the assay with Bordetella pertussis [15], 0.032 µg/mL (≈ 0.0966 µM).
Consider `COc1c(N2CCNC(C)C2)c(F)cc2c(=O)c(C(=O)O)cn(C3CC3)c12` (stereo not drawn) [GATIFLOXACIN], for which the MIC in the assay on Bordetella pertussis [1] worked out at 0.032 µg/mL (≈ 0.0852 µM); against Bordetella pertussis [2], 0.008 µg/mL (≈ 0.0213 µM); with Bordetella pertussis [3], 0.008 µg/mL (≈ 0.0213 µM); with Bordetella pertussis [4], 0.032 µg/mL (≈ 0.0852 µM); in the assay with Bordetella pertussis [5], 0.004 µg/mL (≈ 0.0107 µM); against Bordetella pertussis [6] it was 0.004 µg/mL (≈ 0.0107 µM). Further, the MIC in the assay with Bordetella pertussis [7] amounted to 0.004 µg/mL (≈ 0.0107 µM); with Bordetella pertussis [8] it was 0.032 µg/mL (≈ 0.0852 µM); against Bordetella pertussis [9], 0.008 µg/mL (≈ 0.0213 µM); against Bordetella pertussis [10], 0.032 µg/mL (≈ 0.0852 µM); with Bordetella pertussis [11] it was 0.032 µg/mL (≈ 0.0852 µM); in the assay on Bordetella pertussis [12], 0.032 µg/mL (≈ 0.0852 µM). Moreover, the figures for the MIC against Bordetella pertussis [13], in the assay with Bordetella pertussis [14] and against Bordetella pertussis [15] were 0.008 µg/mL (≈ 0.0213 µM), 0.004 µg/mL (≈ 0.0107 µM) and 0.008 µg/mL (≈ 0.0213 µM), respectively.
`C[C@H]1COc2c(N3CCN(C)CC3)c(F)cc3c(=O)c(C(=O)O)cn1c23.C[C@H]1COc2c(N3CCN(C)CC3)c(F)cc3c(=O)c(C(=O)O)cn1c23.O` [LEVOFLOXACIN]: the MIC with Bordetella pertussis [1] amounted to 0.064 µg/mL; with Bordetella pertussis [2], 0.008 µg/mL; against Bordetella pertussis [3] it was 0.008 µg/mL; against Bordetella pertussis [4] it was 0.064 µg/mL; against Bordetella pertussis [5], 0.008 µg/mL; in the assay with Bordetella pertussis [6] it was 0.004 µg/mL. In addition, the MIC was determined as 0.008 µg/mL against Bordetella pertussis [7]; 0.064 µg/mL against Bordetella pertussis [8]; 0.016 µg/mL with Bordetella pertussis [9]; 0.064 µg/mL in the assay on Bordetella pertussis [10]; 0.064 µg/mL against Bordetella pertussis [11]; 0.064 µg/mL in the assay on Bordetella pertussis [12]. Also, the figures for the MIC against Bordetella pertussis [13], in the assay with Bordetella pertussis [14] and against Bordetella pertussis [15] were 0.016 µg/mL, 0.008 µg/mL and 0.016 µg/mL, respectively.
Turning to `CCn1cc(C(=O)O)c(=O)c2ccc(C)nc21` [NALIDIXIC ACID], the MIC was > 256 µg/mL in the assay with Bordetella pertussis [1]; 1 µg/mL (≈ 4.31 µM) against Bordetella pertussis [2]; 64 µg/mL in the assay on Bordetella pertussis [16]; 2 µg/mL (≈ 8.61 µM) with Bordetella pertussis [3]; 32 µg/mL in the assay with Bordetella pertussis [17]; > 256 µg/mL with Bordetella pertussis [4]. In addition, the MIC stood at 1 µg/mL (≈ 4.31 µM) in the assay on Bordetella pertussis [5]; 32 µg/mL in the assay with Bordetella pertussis [18]; 64 µg/mL with Bordetella pertussis [19]; 2 µg/mL (≈ 8.61 µM) with Bordetella pertussis [6]; 0.25 µg/mL with Bordetella pertussis [20]; 1 µg/mL (≈ 4.31 µM) in the assay on Bordetella pertussis [7]. For the same compound, the MIC was 64 µg/mL with Bordetella pertussis [21]; > 256 µg/mL in the assay with Bordetella pertussis [8]; 2 µg/mL (≈ 8.61 µM) against Bordetella pertussis [9]; > 256 µg/mL against Bordetella pertussis [10]; > 256 µg/mL with Bordetella pertussis [11]; > 256 µg/mL in the assay with Bordetella pertussis [12]. Further, the MIC in the assay with Bordetella pertussis [13] was 1 µg/mL (≈ 4.31 µM); in the assay with Bordetella pertussis [14] it was 2 µg/mL (≈ 8.61 µM); in the assay with Bordetella pertussis [22], 0.25 µg/mL; against Bordetella pertussis [15] it was 2 µg/mL (≈ 8.61 µM); in the assay on Bordetella pertussis [23], 32 µg/mL.
On to `CCn1cc(C(=O)O)c(=O)c2cc(F)c(N3CCNCC3)cc21` [NORFLOXACIN], for which the MIC with Bordetella pertussis [1] is 1 µg/mL (≈ 3.13 µM); in the assay on Bordetella pertussis [2], 0.064 µg/mL (≈ 0.2 µM); against Bordetella pertussis [3], 0.064 µg/mL (≈ 0.2 µM); against Bordetella pertussis [4] it was 0.5 µg/mL (≈ 1.57 µM); against Bordetella pertussis [5] it was 0.064 µg/mL (≈ 0.2 µM); with Bordetella pertussis [6] it was 0.064 µg/mL (≈ 0.2 µM). For the same compound, the MIC with Bordetella pertussis [7] turned out to be 0.064 µg/mL (≈ 0.2 µM); in the assay with Bordetella pertussis [8], 1 µg/mL (≈ 3.13 µM); against Bordetella pertussis [9], 0.032 µg/mL (≈ 0.1 µM); with Bordetella pertussis [10] it was 1 µg/mL (≈ 3.13 µM); with Bordetella pertussis [11] it was 0.5 µg/mL (≈ 1.57 µM); against Bordetella pertussis [12] it was 1 µg/mL (≈ 3.13 µM). Besides, the MIC with Bordetella pertussis [13] stood at 0.064 µg/mL (≈ 0.2 µM); in the assay on Bordetella pertussis [14], 0.064 µg/mL (≈ 0.2 µM); against Bordetella pertussis [15], 0.125 µg/mL (≈ 0.391 µM).
Consider `C[C@@H]1CN(c2c(F)c(N)c3c(=O)c(C(=O)O)cn(C4CC4)c3c2F)C[C@H](C)N1` [SPARFLOXACIN], for which the MIC in the assay on Bordetella pertussis [1] came to 0.064 µg/mL (≈ 0.163 µM); in the assay on Bordetella pertussis [2] it was 0.004 µg/mL (≈ 0.0102 µM); against Bordetella pertussis [3], 0.008 µg/mL (≈ 0.0204 µM); against Bordetella pertussis [4], 0.064 µg/mL (≈ 0.163 µM); in the assay with Bordetella pertussis [5], 0.004 µg/mL (≈ 0.0102 µM); in the assay on Bordetella pertussis [6] it was 0.004 µg/mL (≈ 0.0102 µM). The MIC with Bordetella pertussis [7] turned out to be 0.004 µg/mL (≈ 0.0102 µM); in the assay with Bordetella pertussis [8] it was 0.032 µg/mL (≈ 0.0815 µM); in the assay on Bordetella pertussis [9] it was 0.008 µg/mL (≈ 0.0204 µM); in the assay with Bordetella pertussis [10], 0.125 µg/mL (≈ 0.319 µM); in the assay on Bordetella pertussis [11], 0.064 µg/mL (≈ 0.163 µM); in the assay with Bordetella pertussis [12], 0.064 µg/mL (≈ 0.163 µM). Further, the minimum inhibitory concentration (MIC) against Bordetella pertussis [13] stood at 0.008 µg/mL (≈ 0.0204 µM); against Bordetella pertussis [14] it was 0.004 µg/mL (≈ 0.0102 µM); with Bordetella pertussis [15] it was 0.016 µg/mL (≈ 0.0408 µM).
